# Calls of active or inactive are those of the source.
# What was measured:
# [1] = target: T1, High affinity choline transporter 1 (Homo sapiens, UniProt Q9GZV3); experiment: CHT inhibitors, dose response, cell-based, 5-point CRC, membrane potential dye (AID 504840); type: functional
# T1 sequence (Q9GZV3 whole entry): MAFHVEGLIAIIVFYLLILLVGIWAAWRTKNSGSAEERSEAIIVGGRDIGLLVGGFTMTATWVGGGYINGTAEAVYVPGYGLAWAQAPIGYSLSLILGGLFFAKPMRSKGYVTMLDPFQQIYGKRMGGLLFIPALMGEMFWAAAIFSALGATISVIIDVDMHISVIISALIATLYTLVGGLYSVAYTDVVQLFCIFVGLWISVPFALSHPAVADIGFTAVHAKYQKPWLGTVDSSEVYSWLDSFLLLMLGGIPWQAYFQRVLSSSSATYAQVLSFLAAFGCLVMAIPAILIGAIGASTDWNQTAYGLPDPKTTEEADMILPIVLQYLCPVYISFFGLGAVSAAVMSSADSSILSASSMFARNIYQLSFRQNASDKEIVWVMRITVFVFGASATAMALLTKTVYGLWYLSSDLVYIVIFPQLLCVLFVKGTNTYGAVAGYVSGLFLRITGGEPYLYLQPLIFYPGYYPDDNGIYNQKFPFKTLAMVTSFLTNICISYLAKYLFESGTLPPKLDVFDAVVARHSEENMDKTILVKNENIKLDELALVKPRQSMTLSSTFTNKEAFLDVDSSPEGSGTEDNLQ
# [2] = target: T2, Nuclear receptor subfamily 0 group B member 1 (Homo sapiens, UniProt P51843); experiment: Luminescence-based cell-based high throughput dose response assay for inhibitors of the orphan nuclear receptor subfamily 0, group B, member 1 (DAX1; NR0B1). [Related pubchem assays (depositor defined):AID504766, AID504790]; type: functional
# T2 sequence (P51843 whole entry): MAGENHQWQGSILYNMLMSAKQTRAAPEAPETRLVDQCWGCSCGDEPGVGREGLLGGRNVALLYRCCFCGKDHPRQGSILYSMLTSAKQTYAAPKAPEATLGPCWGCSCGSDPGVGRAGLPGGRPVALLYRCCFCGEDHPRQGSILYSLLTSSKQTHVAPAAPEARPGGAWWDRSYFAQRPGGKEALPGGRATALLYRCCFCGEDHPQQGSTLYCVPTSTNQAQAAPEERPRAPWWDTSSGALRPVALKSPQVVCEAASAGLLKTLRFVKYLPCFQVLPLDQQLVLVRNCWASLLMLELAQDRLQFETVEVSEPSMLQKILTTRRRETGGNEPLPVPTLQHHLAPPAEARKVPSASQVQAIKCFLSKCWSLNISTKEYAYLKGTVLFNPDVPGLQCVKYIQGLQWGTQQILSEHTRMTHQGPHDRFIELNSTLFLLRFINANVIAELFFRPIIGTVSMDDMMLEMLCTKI
# HEK293 [3] = experiment: cells; type: functional, cell-based; conditions: Homo sapiens
# HEK293 [4] = experiment: cells; type: functional, cell-based; conditions: Homo sapiens; remark: listed apart in the source
# HEK293 [5] = experiment: NOD1 signaling inhibitors, primary screen, cell-based, luminescence, uHTS (AID 1578); type: functional; conditions: Homo sapiens
# HEK293 [6] = experiment: NOD2 signaling inhibitors in MDP-stimulated cells, cell-based, uHTS, luminescence (AID 2001); type: functional; conditions: Homo sapiens
# HEK293 [7] = experiment: cells; type: functional, cell-based; conditions: Homo sapiens; remark: listed apart in the source
# Cysteine protease ATG4B = target: T3, Cysteine protease ATG4B (Homo sapiens, UniProt Q9Y4P1); type: functional;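 also: Fluorescence-based dose-response confirmation assay measuring inhibition of ATG4B activity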
# T3 sequence (Q9Y4P1 whole entry): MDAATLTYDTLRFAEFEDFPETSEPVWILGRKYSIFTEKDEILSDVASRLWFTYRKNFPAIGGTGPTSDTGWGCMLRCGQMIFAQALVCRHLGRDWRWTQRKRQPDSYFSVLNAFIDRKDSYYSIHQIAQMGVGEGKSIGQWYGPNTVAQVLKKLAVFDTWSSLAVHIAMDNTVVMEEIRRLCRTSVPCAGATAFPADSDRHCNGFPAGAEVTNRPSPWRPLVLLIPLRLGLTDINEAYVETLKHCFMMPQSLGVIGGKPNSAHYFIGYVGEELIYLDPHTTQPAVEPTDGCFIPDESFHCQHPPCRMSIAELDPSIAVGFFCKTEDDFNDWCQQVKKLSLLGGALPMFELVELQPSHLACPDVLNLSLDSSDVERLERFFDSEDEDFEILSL
# SUMO-activating enzyme [8] = target: T4, SUMO-activating enzyme (Homo sapiens, UniProt Q9UBT2); experiment: inhibitors of in vitro SUMOylation cascade, primary screen, biochemical, HTRF, uHTS (AID 2006); type: protein-complex assay
# T4 sequence (Q9UBE0 whole entry): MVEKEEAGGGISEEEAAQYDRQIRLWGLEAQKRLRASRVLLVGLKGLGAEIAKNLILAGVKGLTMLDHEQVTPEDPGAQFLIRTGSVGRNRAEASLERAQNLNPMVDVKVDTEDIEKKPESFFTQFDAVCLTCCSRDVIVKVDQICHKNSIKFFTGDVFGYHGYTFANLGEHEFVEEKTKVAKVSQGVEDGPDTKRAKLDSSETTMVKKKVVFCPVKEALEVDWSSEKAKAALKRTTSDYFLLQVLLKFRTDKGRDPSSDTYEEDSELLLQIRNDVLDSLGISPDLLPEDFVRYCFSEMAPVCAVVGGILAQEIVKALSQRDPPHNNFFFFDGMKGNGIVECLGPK
# T4 sequence (Q9UBT2 whole entry): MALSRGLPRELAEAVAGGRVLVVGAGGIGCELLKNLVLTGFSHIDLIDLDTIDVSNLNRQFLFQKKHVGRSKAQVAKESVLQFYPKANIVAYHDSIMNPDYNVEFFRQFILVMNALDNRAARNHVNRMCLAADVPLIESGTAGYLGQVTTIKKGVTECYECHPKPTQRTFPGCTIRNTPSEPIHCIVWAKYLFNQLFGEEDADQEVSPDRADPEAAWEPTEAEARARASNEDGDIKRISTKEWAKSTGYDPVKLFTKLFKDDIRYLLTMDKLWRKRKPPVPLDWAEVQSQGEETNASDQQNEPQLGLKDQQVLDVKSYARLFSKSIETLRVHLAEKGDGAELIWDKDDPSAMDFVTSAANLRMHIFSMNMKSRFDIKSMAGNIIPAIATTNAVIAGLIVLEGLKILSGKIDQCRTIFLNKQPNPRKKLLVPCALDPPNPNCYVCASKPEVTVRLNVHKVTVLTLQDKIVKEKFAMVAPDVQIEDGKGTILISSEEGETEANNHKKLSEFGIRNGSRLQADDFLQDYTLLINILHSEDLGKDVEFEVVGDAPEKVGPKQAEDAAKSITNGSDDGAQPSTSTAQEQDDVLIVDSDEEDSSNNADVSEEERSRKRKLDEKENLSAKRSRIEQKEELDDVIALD
# Aminopeptidase N = target: T5, Aminopeptidase N (Plasmodium falciparum FcB1/Columbia, UniProt O96935); experiment: P. falciparum M1AAP inhibitors, biochemical, fluorogenic H-Leu-NHMec substrate, 1536-well (AID 1445); set-up: species or system Plasmodium falciparum 3D7, 3D7
# T5 sequence (O96935 whole entry): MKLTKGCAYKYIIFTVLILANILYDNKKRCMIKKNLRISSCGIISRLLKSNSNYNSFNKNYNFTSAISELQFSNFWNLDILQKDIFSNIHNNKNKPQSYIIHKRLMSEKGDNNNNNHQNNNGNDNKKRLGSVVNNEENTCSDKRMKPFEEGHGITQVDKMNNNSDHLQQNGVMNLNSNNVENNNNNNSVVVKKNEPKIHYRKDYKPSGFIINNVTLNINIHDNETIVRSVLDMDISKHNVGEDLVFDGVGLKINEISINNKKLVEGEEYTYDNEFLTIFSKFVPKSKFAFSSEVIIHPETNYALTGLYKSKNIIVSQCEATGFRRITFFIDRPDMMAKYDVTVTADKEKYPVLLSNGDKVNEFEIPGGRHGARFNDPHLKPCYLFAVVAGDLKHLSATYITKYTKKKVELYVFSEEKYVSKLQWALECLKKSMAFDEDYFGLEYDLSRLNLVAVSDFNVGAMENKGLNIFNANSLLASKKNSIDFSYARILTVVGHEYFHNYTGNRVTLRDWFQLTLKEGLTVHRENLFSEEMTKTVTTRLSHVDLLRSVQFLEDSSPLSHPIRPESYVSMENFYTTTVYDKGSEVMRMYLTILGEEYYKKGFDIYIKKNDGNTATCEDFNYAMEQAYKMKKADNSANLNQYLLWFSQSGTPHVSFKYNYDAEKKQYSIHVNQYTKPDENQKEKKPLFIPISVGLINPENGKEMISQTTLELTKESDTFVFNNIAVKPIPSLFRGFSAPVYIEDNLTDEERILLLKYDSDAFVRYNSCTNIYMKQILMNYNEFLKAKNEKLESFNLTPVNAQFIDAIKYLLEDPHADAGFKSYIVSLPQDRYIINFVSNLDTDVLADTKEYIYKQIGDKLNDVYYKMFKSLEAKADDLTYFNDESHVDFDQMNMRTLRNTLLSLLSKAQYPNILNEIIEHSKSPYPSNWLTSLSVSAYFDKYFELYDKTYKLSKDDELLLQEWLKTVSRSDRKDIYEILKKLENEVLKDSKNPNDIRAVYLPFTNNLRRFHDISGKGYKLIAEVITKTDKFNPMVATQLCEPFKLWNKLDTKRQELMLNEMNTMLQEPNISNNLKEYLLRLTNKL
# Phospholipase A2 = Phospholipase A2 (Homo sapiens, UniProt P04054); type: functional;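 also: confirmatory dose-response counterscreen on phospholipase A2, testing hits that came from an ultra-high-throughput screen for ATG4B inhibitors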
# Phospholipase A2, sequence (P04054 whole entry): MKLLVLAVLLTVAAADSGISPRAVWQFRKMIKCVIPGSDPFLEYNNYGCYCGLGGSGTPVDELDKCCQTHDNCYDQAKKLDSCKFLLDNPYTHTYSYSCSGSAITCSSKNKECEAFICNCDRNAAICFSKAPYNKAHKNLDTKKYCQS
# SUMO-activating enzyme [9] = target: T4, SUMO-activating enzyme; experiment: SUMOylation inhibitor hit validation, confirmation, SUMOylation inhibitor project, biochemical, AlphaScreen (AID 2018); type: functional
# [10] = NIH-3T3 fibroblast cytotoxicity, dose response, cytotoxicity control, cell-based, fluorescence, Alamar Blue, secondary assay (AID 2327); type: functional;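 also: NIH-3T3 mouse fibroblasts cultured with fluconazole at 8 µg/mL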
# [11] = THP-1 cell cytotoxicity, dose response, cytotoxicity control for non-replicating M. tuberculosis project (AID 489025); type: functional
# cells = type: functional
# Vero = experiment: cells; type: functional; conditions: Chlorocebus sabaeus
# [12] = C. albicans growth with fluconazole, confirmation, fluorescence, retest (AID 2467); type: functional, cell-based
# [13] = Luminescence Cell-Based Dose Confirmation HTS to Identify Activators of 5'UTR Stem-Loop Driven Alpha-Synuclein mRNA Translation in H4 Neuroglioblastoma Cells. [Related pubchem assays: 1829 (Project Summary), 1814 (Primary HTS)]; type: functional
# [14] = Vero E6 cell cytotoxicity, dose response, cytotoxicity control for non-replicating M. tuberculosis project, secondary assay (AID 492998); type: functional, VeroE6; conditions: Vero C1008
# [15] = Luminescence Cell-Based Dose Response HTS to Identify Activators of Luciferase Translation or Activity in H4 […] Cells. [Related pubchem assays: 1829 (Project Summary), 1814 (Primary HTS)]; type: functional
# H4 = experiment: Luminescence Cell-Based Dose Response HTS to Identify Activators of 5'UTR Stem-Loop Driven Prion Protein mRNA Translation in H4 Neuroglioblastoma Cells. [Related pubchem assays: 1829 (Project Summary), 1814 (Primary HTS)]; type: functional; conditions: Homo sapiens
# [16] = HepG2 cell cytotoxicity, dose response, cytotoxicity control for non-replicating M. tuberculosis project (AID 489018); type: functional; conditions: Mycobacterium tuberculosis
structure (smiles),measurement,setting,value
Cc1nn(-c2ccccc2)nc1C(=O)Nc1nnc(C(F)(F)F)s1,IC50,[1],17.4 µM (active)
COc1ccc(NC(=O)NNC(=O)CCC(=O)Nc2ccccc2Cl)cc1,IC50,[2],> 67.5 µM (inactive)
same,IC50,HEK293 [3],> 67.5 µM (inactive)
COc1cc2ncnc(NCCc3ccccc3)c2cc1OC,IC50,HEK293 [4],> 20 µM (inactive)
same,EC50,HEK293 [5],19 µM (active)
same,IC50,HEK293 [6],19.3 µM (inactive)
same,IC50,HEK293 [7],> 20 µM (inactive)
COc1cccc(-c2nc(SCC(=O)Nc3nc(-c4ccccc4)c(C)s3)[nH]c(=O)c2C#N)c1,IC50,Cysteine protease ATG4B,14.9 µM (active)
same,IC50,SUMO-activating enzyme [8],15.2 µM (active)
same,IC50,Aminopeptidase N,21.2 µM (active)
same,IC50,Phospholipase A2,15 µM (active)
same,IC50,SUMO-activating enzyme [9],5.37 µM (active)
O=C(NNC(=O)c1ccccc1O)c1ccc(Br)cc1,IC50,[2],> 67.5 µM (inactive)
same,IC50,HEK293 [3],> 67.5 µM (inactive)
O=C(Nc1cccc2ccccc12)c1ccc([N+](=O)[O-])o1,EC50,[10],> 150 µM (inactive)
same,CC50,[11],12.7 µM (active)
same,IC50,cells,5.22 µM (active)
same,CC50,Vero,17.8 µM (active)
same,EC50,[12],1.51 µM (active)
same,EC50,[13],> 120 µM (not active)
same,CC50,[14],6.37 µM (active)
same,EC50,[15],> 120 µM (not active)
same,EC50,H4,> 120 µM (not active)
same,CC50,[16],15.1 µM (active)
